This series can be described thus: Human HepG2 cell viability assay in 384 well format. The settings on record: HepG2 cells, read-out: Inhibition. The arrangement: dose 125 nL, time 70.5 hour; cytotoxicity at 70.5 h: concentration not given beside the values. Format: toxicity, cell-based.
As to `CCCS(=O)(=O)NC(C)C(=O)NCc1ccnc(N2CCCC2)c1` (stereo not drawn), the cytotoxicity at 70.5 h is -3.25%.
The result for `COc1ccccc1NC(=O)NCCCn1nc2ccccn2c1=O` reads -3.26%; that for `CC1CCCCN1CCNC(=O)c1ccn(-c2ccccc2)n1` (stereo not drawn), 13.6%.
On to `O=C(NCCN1CCCCC1)c1ccn(-c2ccc(F)cc2)n1`, for which the cytotoxicity at 70.5 h turned out to be 0.39%.
The value for `O=C(CCNc1ncccn1)N1CCCN(c2nccs2)CC1` was 15.2%; that for `CNS(=O)(=O)c1cccc(CNc2ncccn2)c1` was -1.46%.
The value for `CN(Cc1nnc2n1CCC2)C(=O)Cc1ccc2c(c1)CCC2` was -6.67%; that for `Cc1csc(N2CCN(C(=O)CCCNc3ncccn3)CC2)n1` was -5.37%; that for `O=C(NCCNc1ncccn1)C1CC(=O)N(Cc2ccccn2)C1` (stereo not drawn) was 17.5%.
Consider `CC(C)COCC(NC(=O)c1ccncc1)c1ccco1` (stereo not drawn), for which the cytotoxicity at 70.5 h was -4.28%.
The value for `Cc1cnc(C(=O)NC(COCC(C)C)c2ccco2)cn1` (stereo not drawn) was -0.693%.
The result for `CCN1CCN(CCNC(=O)c2ccn(-c3ccc(F)cc3)n2)CC1` reads -3.79%; that for `CC(=O)N1CCN(C(=O)CN2CCCC2Cn2nc(C)cc2C)CC1` (stereo not drawn), 11.5%.
The result for `Cn1nc2c(cc1=O)CN(CCN1CCCC1=O)CC2` reads -1.09%; that for `Cc1csc(N2CCN(C(=O)c3ccc(C)s3)CC2)n1`, 5.75%; that for `Cc1cc(C)n(CC2CCCN2C(=O)Cc2c(C)nc(C)[nH]c2=O)n1` (stereo not drawn), -13.8%.
For `CC(O)CN1CCC(CNCc2cccc(C(=O)N(C)C)c2)CC1` (stereo not drawn), the cytotoxicity at 70.5 h came to 1.45%.
The value for `CC(Cn1cccn1)NCc1csc(Cc2ccccc2)n1` (stereo not drawn) was 0.563%; that for `Cc1nc(C2CCCN2CCCc2nc3ccccc3o2)no1` (stereo not drawn) was -1.3%; that for `c1ccc(CN2CCCC(Cn3cncn3)C2)nc1` (stereo not drawn) was 20.8%.
The value for `COc1ccccc1OCCC(=O)N1CCCCC1c1nccs1` (stereo not drawn) was 0.499%.
The value for `O=C(NCCNc1ncccn1)N1CCN(c2nccs2)CC1` was -2.7%; that for `Cc1cc(C2CCCN2Cc2nc3ccccc3o2)on1` (stereo not drawn) was 1.19%.
Turning to `CCOc1ccc(S(=O)(=O)NC(=O)CC2CCCO2)cc1` (stereo not drawn), the cytotoxicity at 70.5 h was 17.8%.
The value for `CS(=O)(=O)CCNC(=O)c1ccc(-c2ccco2)[nH]c1=O` was 1.54%; that for `Cc1nc(-c2ccccc2)n(CC(=O)NC(C)C)n1` was -1.29%.
As to `c1csc(-c2noc(CN3CCCCC3Cn3cccn3)n2)c1` (stereo not drawn), the cytotoxicity at 70.5 h was -1.63%.
The value for `O=C1COc2ccc(C(=O)N3CCCC(n4ccnc4)C3)cc2N1` (stereo not drawn) was 2.98%; that for `Cc1nc(C2CCCN(C(=O)c3cc(Cl)c[nH]3)C2)sc1C` (stereo not drawn) was -2.27%.
The value for `COc1cccc(C(=O)N2CCCCC2c2nccs2)c1OC` (stereo not drawn) was 2.23%; that for `O=C(NCCNc1ncccn1)N1CCN(C2CCCC2)CC1` was -8.5%; that for `COc1cc(C(=O)N2CCCC(c3cc(C)[nH]n3)C2)cc(OC)c1C` (stereo not drawn) was 29%.
Regarding `Cc1cnn(CCC(=O)N2CCCC(c3cc(C)[nH]n3)C2)c1` (stereo not drawn), the cytotoxicity at 70.5 h amounted to 49%.
The result for `COc1c(C2CCCN2CC(=O)Nc2ccncc2)c(C)nn1C` (stereo not drawn) reads 6.03%; that for `O=C(NCc1nncn1-c1ccccc1)C1CC1`, -1.31%; that for `Cc1ccc(OCCCC(=O)NC(C)c2nnc3n2CCC3)cc1` (stereo not drawn), -0.817%.
On to `Cc1cccc(OCCC(=O)NC(C)c2nnc3n2CCC3)c1` (stereo not drawn), for which the cytotoxicity at 70.5 h stood at 2.23%.
The value for `Cc1ccccc1OCCCC(=O)NC(C)c1nnc2n1CCC2` (stereo not drawn) was -2.09%.
The result for `CN(C)c1cc(CNC(=O)Nc2cccnc2N2CCCC2)ccn1` reads -2.03%; that for `O=C(NCc1ccc2c(c1)OCO2)Nc1cccnc1N1CCCC1`, -2.2%; that for `O=C(NCc1ccc(-n2cncn2)nc1)c1ccc2c(c1)CCC2`, 0.85%.
With `COc1ccc(CNC(=O)Nc2ccc(N3CCCC3)nc2)cc1O`, the cytotoxicity at 70.5 h was -2.31%.
The value for `COc1ncccc1NC(=O)NC(C)c1nncn1C` (stereo not drawn) was -5.01%.
The result for `COc1ccc(CNC(=O)Nc2cccnc2N2CCCC2)cc1OC` reads 20.8%; that for `CC(NC(=O)Nc1ccc(N2CCCC2)nc1)c1nncn1C` (stereo not drawn), 5.27%; that for `COc1ccccc1OCCN1CCCCC1Cn1cncn1` (stereo not drawn), 23.7%.
Consider `Cc1nn(C)c(C)c1C1CCCN1CC(=O)Nc1nccs1` (stereo not drawn), for which the cytotoxicity at 70.5 h was -0.764%.
The result for `Cc1nn(C)c(C)c1C1CCCN1CC(=O)Nc1cccnc1` (stereo not drawn) reads 23.1%; that for `Cc1nnc(NC(=O)CN2CCCC2c2c(C)nn(C)c2C)s1` (stereo not drawn), 7.87%; that for `Cc1n[nH]c(C)c1NC(=O)CN1CCCC1c1c(C)nn(C)c1C` (stereo not drawn), 1.54%.
The result for `COc1ccccc1CC(=O)N1CCCC(c2cc(C)[nH]n2)C1` (stereo not drawn) reads 3.02%; that for `COc1cc(Cl)ccc1C(=O)N1CCCC(c2cc(C)[nH]n2)C1` (stereo not drawn), 36.1%.
Regarding `CC(NC(=O)CCOc1ccc(F)cc1)c1nnc2n1CCCCC2` (stereo not drawn), the cytotoxicity at 70.5 h was determined as 5.98%.
The result for `CC(C)c1nc2n(n1)CC(NCc1nc(C3CC3)no1)CC2` (stereo not drawn) reads -1.86%.
The value for `c1cnnc(N2CCCC(NCc3cccc4c3OCCCO4)C2)c1` (stereo not drawn) was 0.746%; that for `Cn1cnnc1C1CCCN(C(=O)COCc2ccccc2)C1` (stereo not drawn) was -2.8%.
The value for `COCc1nc(C(=O)N2CCCC(n3nc(C)nc3C)C2)cs1` (stereo not drawn) was 28.1%.
As for `Cc1nc(C)n(C2CCCN(C(=O)c3ccn(C(C)C)n3)C2)n1` (stereo not drawn), the cytotoxicity at 70.5 h is -6.2%.
The value for `Cc1nc(C)n(C2CCCN(C(=O)c3cscn3)C2)n1` (stereo not drawn) was -2.85%.
The result for `Cc1cnc(C(=O)N2CCCC(n3nc(C)nc3C)C2)cn1` (stereo not drawn) reads -11.1%; that for `COc1ncccc1CNC(=O)c1cc(C)on1`, -8.23%.
The result for `CC(C)Oc1ncccc1CNC(=O)c1ccc(=O)[nH]n1` reads -3.21%; that for `COc1cccc(C(=O)N2CCCC(CNS(C)(=O)=O)C2)c1` (stereo not drawn), -8.76%; that for `Cc1cnc(C(=O)NCc2cccnc2OC(C)C)cn1`, 21%.
For `Cc1nn(C)c(N(C)C)c1CNCc1ccccc1Cn1cncn1`, the cytotoxicity at 70.5 h was -9.26%.
The result for `Cc1nc(C(=O)N2CCCC2c2c(C)nn(C)c2C)ccc1C#N` (stereo not drawn) reads -7.57%; that for `COc1ccc(C(=O)N2CCC(Nc3cccnn3)CC2)c(OC)c1`, -6.9%.
Take `CC(NC(N)=O)C(=O)N1CCCN(Cc2nccn2C(C)C)CC1` (stereo not drawn): the cytotoxicity at 70.5 h is -11.9%.
The result for `Cc1nnc2n1CCN(CCOc1ccccc1)C2` reads -11.4%.
The value for `Cc1ccc(NC2CCN(C(=O)c3cccc(F)c3F)CC2)nn1` was -13.7%; that for `Cc1ccc(-c2nc(CN3CCC(C(=O)N(C)C)CC3)cs2)o1` was 9.92%.
The value for `CCCc1n[nH]c(C2CN(CCNS(=O)(=O)CC)CCO2)n1` (stereo not drawn) was 7.53%.
As for `O=S(=O)(CCN1CCOC(Cn2cccn2)C1)C(F)(F)F` (stereo not drawn), the cytotoxicity at 70.5 h was determined as 11.7%.
As for `CCn1cnnc1CNC(=O)c1cc(Cl)ccc1O`, the cytotoxicity at 70.5 h turned out to be 22.7%.
The result for `Cc1cccc(C(=O)NCc2ccc(N3CCCCC3)nc2)n1` reads -3.76%; that for `Cn1cc(C(=O)NC2CCN(C(=O)NCCSC(F)(F)F)CC2)cn1`, -1.82%; that for `CCc1cccc(N2CCC(NC(=O)c3cc[nH]n3)CC2)c1`, 31.2%.
The result for `CCN1CCCC(CNC(=O)C2(c3cccc(Cl)c3)CC2)C1` (stereo not drawn) reads -0.608%; that for `CCN1CCC(CNC(=O)C2(c3cccc(C)c3)CC2)C1` (stereo not drawn), 0.0668%; that for `CCn1cc(NC(=O)C2CCN(Cc3ccccc3C#N)CC2)cn1`, -1.61%.
The result for `O=C(CCc1ccccc1F)NS(=O)(=O)c1ccc2c(c1)OCCCO2` reads -3.8%; that for `FC(F)(F)Cn1ccnc1CN1CCOC(Cn2cccn2)C1` (stereo not drawn), -2.61%.
For `Cc1cc(C)n(CC2CCCN2C(=O)c2cc[nH]n2)n1` (stereo not drawn), the cytotoxicity at 70.5 h was -1.3%.
The value for `Cc1cc(C)n(C2CN(CC(=O)N3CCOCC3)C2)n1` was 4.72%; that for `Cc1cc(C)n(C2CN(CC(=O)NCC(C)(C)N3CCOCC3)C2)n1` was 0.262%.
The result for `Cc1ccoc1C(=O)NC1CCN(Cc2csc3c(F)cccc23)CC1` reads 18.8%; that for `CC(C)C(=O)NC1CCN(Cc2cccc3c2OCCO3)CC1`, -1.98%.
Consider `c1ccc(OCCCNCCn2cccn2)cc1`, for which the cytotoxicity at 70.5 h is -0.836%.
The value for `CCc1nc(CN(Cc2cccs2)CC2CCCO2)no1` (stereo not drawn) was 1.39%; that for `Cc1cnn(C2CCCN(C(=O)c3ccnc(N(C)C)c3)C2)c1` (stereo not drawn) was 28.8%; that for `Cc1cnn(C2CCCN(C(=O)c3cccc(Cn4ccnc4)c3)C2)c1` (stereo not drawn) was 20.1%.
`CSc1ncccc1C(=O)NCc1ccc(CS(=O)(=O)NC(C)C)cc1`: the cytotoxicity at 70.5 h is 2.32%.
The result for `COc1ccc(OC)c(NC(=O)NCC(O)c2ccc(F)c(F)c2)c1` (stereo not drawn) reads 9.62%; that for `O=C(NCCNc1cnccn1)C1CCN(C(=O)N2CCCC2)CC1`, 2.17%; that for `COc1ncccc1NC(=O)NCC(O)c1ccc(F)cc1F` (stereo not drawn), -1.05%.
The result for `CS(=O)(=O)Cc1ccc(CNC(=O)c2cccnc2O)cc1` reads 9.83%; that for `Cc1cc(C)c(CNC(=O)N2CCCC2C(N)=O)c(=O)[nH]1` (stereo not drawn), -4.33%.
Regarding `CC(C)NC(=O)Cn1cc(-c2ccccc2)cn1`, the cytotoxicity at 70.5 h stood at 1.95%.
Turning to `O=C(NCCNc1cnccn1)N1CCCC1`, the cytotoxicity at 70.5 h amounted to 5.69%.
With `CC(C(=O)N1CCN(c2cnccn2)CC1)n1cncn1` (stereo not drawn), the cytotoxicity at 70.5 h is -4.32%.
Regarding `CC(=O)NC(C)(C)C(=O)Nc1ncc(Cc2ccc(C)c(F)c2)s1`, the cytotoxicity at 70.5 h was -0.712%.
Regarding `Cc1cc(C)n(C2CCCN(C(=O)CCCNc3ncccn3)C2)n1` (stereo not drawn), the cytotoxicity at 70.5 h worked out at 27.5%.
As to `Cc1cnn(CC2CCCCN2CCC(=O)Nc2cc(C)on2)c1` (stereo not drawn), the cytotoxicity at 70.5 h came to 4.06%.

For the origin of these results see ChEMBL document CHEMBL3507680, “University of Dundee, Gates Library screen for HepG2 cell viability”.
